Values quoted from earlier work as cited in patent US4743707A, “Process for purifying allyl alcohol” (priority 1986, dated 1988).

Details: 20° C.; Ullmanns Encyklopadie

## O=P([O-])([O-])OP(=O)([O-])OP(=O)([O-])[O-].[K+].[K+].[K+].[K+].[K+] [Potassium tripolyphosphate, potassium tripolyphosphate]
  water solubility: about 67%
